# From ChEMBL document CHEMBL3400015, “Tertiary amides of Salinomycin: A new group of antibacterial agents against Bacillus anthracis and methicillin-resistant Staphylococcus epidermidis” (Bioorg Med Chem Lett, 2015)
# Active and inactive are the calls of the source. No cut-off for these calls is given here.
# How the values were obtained:
# Staphylococcus aureus [1] = experiment: Antimicrobial activity against Staphylococcus aureus NCTC 4163 after 18 hrs by twofold serial broth dilution method; format: functional; conditions: NCTC 4163, 18 h
# Staphylococcus aureus [2] = experiment: Antimicrobial activity against Staphylococcus aureus ATCC 25923 after 18 hrs by twofold serial broth dilution method; format: functional; conditions: ATCC 25923, 18 h
# Escherichia coli [3] = experiment: Antimicrobial activity against Escherichia coli ATCC 10538 after 18 hrs by twofold serial broth dilution method; format: functional; conditions: ATCC 10538, 18 h
# Staphylococcus aureus [4] = experiment: Bactericidal activity against Staphylococcus aureus NCTC 4163 after 24 hrs; format: functional; conditions: NCTC 4163, 24 h, read-out: MBC99.9
# Staphylococcus aureus [5] = experiment: Bactericidal activity against Staphylococcus aureus ATCC 6538 after 24 hrs; format: functional; conditions: ATCC 6538, 24 h, read-out: MBC99.9
# Escherichia coli [6] = experiment: Bactericidal activity against Escherichia coli ATCC 10538 after 24 hrs; format: functional; conditions: ATCC 10538, 24 h, read-out: MBC99.9
# Escherichia coli [7] = experiment: Bactericidal activity against Escherichia coli ATCC 25922 after 24 hrs; format: functional; conditions: ATCC 25922, 24 h, read-out: MBC99.9
# Pseudomonas aeruginosa = experiment: Bactericidal activity against Pseudomonas aeruginosa ATCC 15442 after 24 hrs; format: functional; conditions: ATCC 15442, 24 h, read-out: MBC99.9
# [8] = system: Staphylococcus epidermidis; experiment: Antimicrobial activity against methicillin-resistant Staphylococcus epidermidis isolate 469/11 after 18 hrs by twofold serial broth dilution method; format: functional; conditions: isolate 469/11, 18 h
# [9] = system: Staphylococcus epidermidis; experiment: Bactericidal activity against methicillin-resistant Staphylococcus epidermidis isolate 405/10 after 24 hrs; format: functional; conditions: isolate 405/10, 24 h, read-out: MBC99.9
# [10] = system: Staphylococcus epidermidis; experiment: Bactericidal activity against methicillin-resistant Staphylococcus epidermidis isolate 409/10 after 24 hrs; format: functional; conditions: isolate 409/10, 24 h, read-out: MBC99.9
# [11] = system: Staphylococcus epidermidis; experiment: Bactericidal activity against methicillin-resistant Staphylococcus epidermidis isolate 422/10 after 24 hrs; format: functional; conditions: isolate 422/10, 24 h, read-out: MBC99.9
# [12] = system: Staphylococcus epidermidis; experiment: Bactericidal activity against methicillin-resistant Staphylococcus epidermidis isolate 457/11 after 24 hrs; format: functional; conditions: isolate 457/11, 24 h, read-out: MBC99.9
# [13] = system: Staphylococcus epidermidis; experiment: Bactericidal activity against methicillin-resistant Staphylococcus epidermidis isolate 461/11 after 24 hrs; format: functional; conditions: isolate 461/11, 24 h, read-out: MBC99.9
# [14] = system: Staphylococcus epidermidis; experiment: Bactericidal activity against methicillin-resistant Staphylococcus epidermidis isolate 469/11 after 24 hrs; format: functional; conditions: isolate 469/11, 24 h, read-out: MBC99.9
# Bacillus subtilis = experiment: Genotoxicity in rec-positive Bacillus subtilis H17 at 2 ug/9 mm disc after 24 hrs by disc diffusion method; format: toxicity, organism-based
# [15] = system: Staphylococcus epidermidis; experiment: Ratio of ciprofloxacin MIC to compound MIC for methicillin-resistant Staphylococcus epidermidis clinical isolate after 18 hrs by twofold serial broth dilution method; format: functional
# [16] = system: Staphylococcus epidermidis; experiment: Inhibition of Staphylococcus epidermidis ATCC 35984 biofilm formation at 1 to 32 ug/ml after 24 hrs by MTT assay; format: functional, organism-based
# [17] = system: Staphylococcus epidermidis; experiment: Inhibition of Staphylococcus epidermidis ATCC 12228 biofilm formation at 1 to 32 ug/ml after 24 hrs by MTT assay; format: functional, organism-based
# [18] = system: Staphylococcus epidermidis; experiment: Inhibition of Staphylococcus epidermidis isolate 407/10 biofilm formation at 1 to 32 ug/ml after 24 hrs by MTT assay; format: functional, organism-based
# [19] = system: Staphylococcus epidermidis; experiment: Inhibition of Staphylococcus epidermidis isolate 409/10 biofilm formation at 1 to 32 ug/ml after 24 hrs by MTT assay; format: functional, organism-based
# [20] = system: Staphylococcus epidermidis; experiment: Inhibition of Staphylococcus epidermidis isolate 461/11 biofilm formation at 1 to 32 ug/ml after 24 hrs by MTT assay; format: functional, organism-based
# [21] = system: Staphylococcus epidermidis; experiment: Inhibition of Staphylococcus epidermidis isolate 469/11 biofilm formation at 1 to 32 ug/ml after 24 hrs by MTT assay; format: functional, organism-based
SMILES,MIC (Staphylococcus aureus [1]) [µg/mL],MIC (Staphylococcus aureus [2]) [µg/mL],MIC (Escherichia coli [3]) [µg/mL],MBC (Staphylococcus aureus [4]) [µg/mL],MBC (Staphylococcus aureus [5]) [µg/mL],MBC (Escherichia coli [6]) [µg/mL],MBC (Escherichia coli [7]) [µg/mL],MBC (Pseudomonas aeruginosa) [µg/mL],MIC [8] [µg/mL],MBC [9] [µg/mL],MBC [10] [µg/mL],MBC [11] [µg/mL],MBC [12] [µg/mL],MBC [13] [µg/mL],MBC [14] [µg/mL],diameter of the inhibition zone (DIZ) (Bacillus subtilis) [mm],Ratio [15],other results
CCCN(CCC)C(=O)[C@H](CC)[C@H]1CC[C@H](C)[C@H]([C@@H](C)[C@H](O)[C@H](C)C(=O)[C@H](CC)[C@H]2O[C@]3(C=C[C@@H](O)[C@]4(CC[C@@](C)([C@H]5CC[C@](O)(CC)[C@H](C)O5)O4)O3)[C@H](C)C[C@@H]2C)O1,2,1,> 256,> 256,256,> 256,> 256,> 256,4,128,128,128,256,128,128,28,40,–
CC[C@@H](C(=O)[C@@H](C)[C@@H](O)[C@H](C)[C@@H]1O[C@@H]([C@@H](CC)C(=O)N(CCO)CCO)CC[C@@H]1C)[C@H]1O[C@]2(C=C[C@@H](O)[C@]3(CC[C@@](C)([C@H]4CC[C@](O)(CC)[C@H](C)O4)O3)O2)[C@H](C)C[C@@H]1C,4,4,> 256,256,256,> 256,> 256,> 256,4,128,256,128,256,128,256,28,40,–
CCCCN(CCCC)C(=O)[C@H](CC)[C@H]1CC[C@H](C)[C@H]([C@@H](C)[C@H](O)[C@H](C)C(=O)[C@H](CC)[C@H]2O[C@]3(C=C[C@@H](O)[C@]4(CC[C@@](C)([C@H]5CC[C@](O)(CC)[C@H](C)O5)O4)O3)[C@H](C)C[C@@H]2C)O1,8,8,> 256,> 256,256,> 256,> 256,> 256,8,128,> 256,256,256,> 256,> 256,29,–,–
CC[C@@H](C(=O)[C@@H](C)[C@@H](O)[C@H](C)[C@@H]1O[C@@H]([C@@H](CC)C(=O)N(Cc2ccccc2)Cc2ccccc2)CC[C@@H]1C)[C@H]1O[C@]2(C=C[C@@H](O)[C@]3(CC[C@@](C)([C@H]4CC[C@](O)(CC)[C@H](C)O4)O3)O2)[C@H](C)C[C@@H]1C,16,8,> 256,256,256,> 256,> 256,> 256,32,128,256,256,256,> 256,> 256,21,–,–
O=C(O)c1cn(C2CC2)c2cc(N3CCNCC3)c(F)cc2c1=O [CIPROFLOXACIN],0.25,0.5,–,0.5,–,0.0016,0.0016,0.25,8,128,64,64,> 256,1,128,–,–,inhibition [16]: Active; inhibition [17]: Active; inhibition [18]: Active; inhibition [19]: Active; inhibition [20]: Active; inhibition [21]: Active
